In brackets after ≈: the same amount, converted by molar mass. Some results are limits rather than exact numbers.

Assay [1] concerns Staphylococcus aureus. Nature of the assay: Antimicrobial activity against Staphylococcus aureus FDA209P by serial dilution method. Type of assay: functional.
Assay [2] has as its system Staphylococcus aureus. Put plainly: Antimicrobial activity against Staphylococcus aureus Smith by serial dilution method. Type of assay: functional.
Assay [3] deals with Staphylococcus aureus. Nature of the assay: Antimicrobial activity against methicillin-resistant Staphylococcus aureus N315 IR94 by serial dilution method. Type of assay: functional.
For assay [4], the system named is Staphylococcus aureus. Put plainly: Antimicrobial activity against methicillin-resistant Staphylococcus aureus N315 IR94-HR-1 by serial dilution method. Type of assay: functional.
Assay [5] deals with Staphylococcus aureus. Put plainly: Antimicrobial activity against methicillin-resistant Staphylococcus aureus 70 by serial dilution method. Type of assay: functional.
Assay [6] has as its system Staphylococcus aureus. Put plainly: Antimicrobial activity against methicillin-resistant Staphylococcus aureus 92-1191 by serial dilution method. Type of assay: functional.
For assay [7], the system named is Staphylococcus aureus. Nature of the assay: Antimicrobial activity against Staphylococcus aureus ISP447 by serial dilution method. Type of assay: functional.
The test system of assay [8] is Staphylococcus aureus. Nature of the assay: Antimicrobial activity against Staphylococcus aureus ISP217 by serial dilution method. Type of assay: functional.
The test system of assay [9] is Staphylococcus aureus. Nature of the assay: (§1) Antimicrobial activity against Staphylococcus aureus 8325 by serial dilution method. Type of assay: functional.
In assay [10] the test system is Staphylococcus aureus. The description is as §1. Type of assay: functional. The source holds these as a separate data set.
The test system of the next assay is Enterococcus faecalis. Put plainly: Antimicrobial activity against vancomycin-resistant Enterococcus faecalis NCTC-12201 by serial dilution method. Type of assay: functional.
The next assay has as its system Escherichia coli. Nature of the assay: Antimicrobial activity against Escherichia coli NIHJ JC-2 by serial dilution method. Type of assay: functional.
Another assay deals with Enterococcus faecium. Nature of the assay: Antimicrobial activity against vancomycin-resistant Enterococcus faecium NCTC-12203 by serial dilution method.

By MIC is commonly meant the lowest concentration that inhibits growth of the organism. A low value points to inhibition by little substance. Consider `CC[C@H]1OC(=O)[C@H](C)[C@@H](O)[C@H](C)[C@@H](O[C@@H]2O[C@H](C)C[C@H](N(C)C)[C@H]2OC(C)=O)[C@@]2(C)CC(C)=C(O2)[C@H](C)[C@@H](OC(=O)C(C)C)[C@]1(C)OC(=O)C(C)C`, for which the MIC against Staphylococcus aureus [1] was 64 µg/mL (≈ 86.5 µM); against Staphylococcus aureus [2], greater than 128 µg/mL; in the assay with Staphylococcus aureus [3], 64 µg/mL (≈ 86.5 µM); in the assay with Staphylococcus aureus [4], 64 µg/mL (≈ 86.5 µM); against Staphylococcus aureus [5], 64 µg/mL (≈ 86.5 µM); against Staphylococcus aureus [6], 64 µg/mL (≈ 86.5 µM). Moreover, the MIC with Staphylococcus aureus [7] was 128 µg/mL (≈ 173 µM); against Staphylococcus aureus [8] it was 64 µg/mL (≈ 86.5 µM); against Staphylococcus aureus [9], 128 µg/mL (≈ 173 µM); against Staphylococcus aureus [10] it was 64 µg/mL (≈ 86.5 µM); against Enterococcus faecalis it was 64 µg/mL (≈ 86.5 µM); in the assay with Escherichia coli, greater than 128 µg/mL. Further, the lowest concentration to inhibit growth against Enterococcus faecium (MIC) was 64 µg/mL (≈ 86.5 µM).

With `CC[C@H]1OC(=O)[C@H](C)[C@@H](OCc2cn(C34CC5CC(CC(C5)C3)C4)nn2)[C@H](C)[C@@H](O[C@@H]2O[C@H](C)C[C@H](N(C)C)[C@H]2O)[C@@]2(C)CC(C)=C(O2)[C@H](C)[C@@H](OC(=O)C(C)C)[C@]1(C)OC(=O)C(C)C`, the MIC in the assay on Staphylococcus aureus [1] was found to be 8 µg/mL (≈ 8.76 µM); with Staphylococcus aureus [2], 16 µg/mL (≈ 17.5 µM); with Staphylococcus aureus [3], 8 µg/mL (≈ 8.76 µM); with Staphylococcus aureus [4], 8 µg/mL (≈ 8.76 µM); against Staphylococcus aureus [5], 8 µg/mL (≈ 8.76 µM); with Staphylococcus aureus [6] it was 8 µg/mL (≈ 8.76 µM). The MIC against Staphylococcus aureus [7] is 16 µg/mL (≈ 17.5 µM); with Staphylococcus aureus [8], 8 µg/mL (≈ 8.76 µM); in the assay on Staphylococcus aureus [9], 16 µg/mL (≈ 17.5 µM); in the assay with Staphylococcus aureus [10], 8 µg/mL (≈ 8.76 µM); against Enterococcus faecalis, 8 µg/mL (≈ 8.76 µM); against Escherichia coli it was greater than 128 µg/mL. In the assay on Enterococcus faecium, this compound gave a minimal inhibitory concentration (MIC) of 8 µg/mL (≈ 8.76 µM).

Consider `CC[C@H]1OC(=O)[C@H](C)[C@@H](OCc2cn(CC(=O)Nc3ccccn3)nn2)[C@H](C)[C@@H](O[C@@H]2O[C@H](C)C[C@H](N(C)C)[C@H]2O)[C@@]2(C)CC(C)=C(O2)[C@H](C)[C@@H](OC(=O)C(C)C)[C@]1(C)OC(=O)C(C)C`, for which the MIC stood at 32 µg/mL (≈ 35 µM) against Staphylococcus aureus [1]; 32 µg/mL (≈ 35 µM) with Staphylococcus aureus [2]; 16 µg/mL (≈ 17.5 µM) against Staphylococcus aureus [3]; 16 µg/mL (≈ 17.5 µM) with Staphylococcus aureus [4]; 32 µg/mL (≈ 35 µM) against Staphylococcus aureus [5]; 32 µg/mL (≈ 35 µM) against Staphylococcus aureus [6]. Also, the MIC in the assay with Staphylococcus aureus [7] was 32 µg/mL (≈ 35 µM); against Staphylococcus aureus [8], 16 µg/mL (≈ 17.5 µM); in the assay with Staphylococcus aureus [9], 32 µg/mL (≈ 35 µM); in the assay on Staphylococcus aureus [10], 16 µg/mL (≈ 17.5 µM); in the assay with Enterococcus faecalis, greater than 128 µg/mL; in the assay on Escherichia coli, greater than 128 µg/mL. The compound further came in with an MIC in the assay on Enterococcus faecium of 32 µg/mL (≈ 35 µM).

`CC[C@H]1OC(=O)[C@H](C)[C@@H](OCc2cn(CCO)nn2)[C@H](C)[C@@H](O[C@@H]2O[C@H](C)C[C@H](N(C)C)[C@H]2O)[C@@]2(C)CC(C)=C(O2)[C@H](C)[C@@H](OC(=O)C(C)C)[C@]1(C)OC(=O)C(C)C`: the MIC in the assay with Staphylococcus aureus [1] was 64 µg/mL (≈ 77.8 µM); in the assay on Staphylococcus aureus [2] it was greater than 128 µg/mL; with Staphylococcus aureus [3], 64 µg/mL (≈ 77.8 µM); against Staphylococcus aureus [4], 64 µg/mL (≈ 77.8 µM); in the assay on Staphylococcus aureus [5], 64 µg/mL (≈ 77.8 µM); with Staphylococcus aureus [6], 128 µg/mL (≈ 156 µM). Besides, the MIC with Staphylococcus aureus [7] was greater than 128 µg/mL; against Staphylococcus aureus [8], 128 µg/mL (≈ 156 µM); in the assay on Staphylococcus aureus [9], 128 µg/mL (≈ 156 µM); against Staphylococcus aureus [10], 64 µg/mL (≈ 77.8 µM); against Enterococcus faecalis, 128 µg/mL (≈ 156 µM); against Escherichia coli, greater than 128 µg/mL. This compound had an MIC in the assay with Enterococcus faecium of 64 µg/mL (≈ 77.8 µM).

On to `CC[C@H]1OC(=O)[C@H](C)[C@@H](OCc2cn(-c3cccc4ccccc34)nn2)[C@H](C)[C@@H](O[C@@H]2O[C@H](C)C[C@H](N(C)C)[C@H]2O)[C@@]2(C)CC(C)=C(O2)[C@H](C)[C@@H](OC(=O)C(C)C)[C@]1(C)OC(=O)C(C)C`, for which the MIC against Staphylococcus aureus [1] came to 32 µg/mL (≈ 35.4 µM); against Staphylococcus aureus [2], 64 µg/mL (≈ 70.7 µM); with Staphylococcus aureus [3], 16 µg/mL (≈ 17.7 µM); against Staphylococcus aureus [4], 16 µg/mL (≈ 17.7 µM); in the assay on Staphylococcus aureus [5] it was 16 µg/mL (≈ 17.7 µM); in the assay on Staphylococcus aureus [6] it was 32 µg/mL (≈ 35.4 µM). For the same compound, the MIC against Staphylococcus aureus [7] is 32 µg/mL (≈ 35.4 µM); against Staphylococcus aureus [8], 16 µg/mL (≈ 17.7 µM); with Staphylococcus aureus [9], 64 µg/mL (≈ 70.7 µM); in the assay on Staphylococcus aureus [10], 16 µg/mL (≈ 17.7 µM); against Enterococcus faecalis, 32 µg/mL (≈ 35.4 µM); in the assay with Escherichia coli, greater than 128 µg/mL. Moreover, the MIC against Enterococcus faecium was found to be 16 µg/mL (≈ 17.7 µM).

The values are drawn from ChEMBL document CHEMBL1140490, “Design and synthesis via click chemistry of 8,9-anhydroerythromycin A 6,9-hemiketal analogues with anti-MRSA and -VRE activity” (2007).
